Measured values: PubChem BioAssay AID1918944 (Molecular Pharmacology Branch, DTP, NCI, 2023)
Where “and” joins values, the source holds several entries; their conditions need not be identical. Identical values can stand only once. Calls of active or inactive are those of the source. The calls were made as follows: active = viability on the fitted dose curve at most 10% of control; inactive = the rest.

Test system: 786-0 complex spheroid viability
Assay: Anticancer human tumor 786-0 cell line growth inhibition;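 also: spheroids exposed to agents for seven days before readout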
Conditions: for viability, T/C: stronger effect = lower value
Summary of the method: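 Complex spheroids of tumor cells with HUVEC and human MSCs, exposed to iadademstat combined with other agents. Each agent tested in half-log steps from near clinical Cmax (else 10 microM top), DMSO ≤0.25%.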

[1] = curve of first compound, second compound 0.1 µM
[2] = curve of first compound, second compound 0.316 µM
[3] = curve of first compound, second compound 1 µM
[4] = curve of first compound, second compound 3.16 µM
[5] = curve of first compound, second compound 10 µM
[6] = second compound 0.1 µM, first compound 0.000949 µM
[7] = second compound 0.1 µM, first compound 0.003 µM
[8] = second compound 0.1 µM, first compound 0.00949 µM
[9] = second compound 0.1 µM, first compound 0.03 µM
[10] = second compound 0.1 µM, first compound 0.0949 µM
[11] = second compound 0.1 µM, first compound 0.3 µM
[12] = second compound 0.316 µM, first compound 0.000949 µM
[13] = second compound 0.316 µM, first compound 0.003 µM
[14] = second compound 0.316 µM, first compound 0.00949 µM
[15] = second compound 0.316 µM, first compound 0.03 µM
[16] = second compound 0.316 µM, first compound 0.0949 µM
[17] = second compound 0.316 µM, first compound 0.3 µM
[18] = second compound 1 µM, first compound 0.000949 µM
[19] = second compound 1 µM, first compound 0.003 µM
[20] = second compound 1 µM, first compound 0.00949 µM
[21] = second compound 1 µM, first compound 0.03 µM
[22] = second compound 1 µM, first compound 0.0949 µM
[23] = second compound 1 µM, first compound 0.3 µM
[24] = second compound 3.16 µM, first compound 0.000949 µM
[25] = second compound 3.16 µM, first compound 0.003 µM
[26] = second compound 3.16 µM, first compound 0.00949 µM
[27] = second compound 3.16 µM, first compound 0.03 µM
[28] = second compound 3.16 µM, first compound 0.0949 µM
[29] = second compound 3.16 µM, first compound 0.3 µM
[30] = second compound 10 µM, first compound 0.000949 µM
[31] = second compound 10 µM, first compound 0.003 µM
[32] = second compound 10 µM, first compound 0.00949 µM
[33] = second compound 10 µM, first compound 0.03 µM
[34] = second compound 10 µM, first compound 0.0949 µM
[35] = second compound 10 µM, first compound 0.3 µM

CC1COCCN1c1cc(-c2ccnn2C)c2ccnc(-c3ccn[nH]3)c2n1 (stereo not drawn)
40 nM and 49.3 nM: IC50 (curve of compound)
inactive: viability, T/C (compound 0.00316 µM) 101% and 93.8% | viability, T/C (compound 0.01 µM) 95.2% and 97.4% | viability, T/C (compound 0.0316 µM) 56.1% and 64.5% | viability, T/C (compound 0.1 µM) 23.4% and 27.1% | viability, T/C (compound 0.316 µM) 11.3% and 22.2% | viability, T/C (compound 1 µM) 12.7% and 18%

Nc1ccn(C2OC(CO)C(O)C2(F)F)c(=O)n1 (stereo not drawn) + NC1CCC(NC2CC2c2ccccc2)CC1
active: viability, T/C [6] 4.09% | viability, T/C [7] 2.17% | viability, T/C [8] 2.51% | viability, T/C [9] 5.79% | viability, T/C [10] 3.38% | viability, T/C [11] 3.63% | viability, T/C [12] 4.14% | viability, T/C [13] 2.73% | viability, T/C [14] 2.97% | viability, T/C [15] 3.95% | viability, T/C [16] 3.04% | viability, T/C [17] 3.93% | viability, T/C [18] 4.18% | viability, T/C [19] 4.49% | viability, T/C [20] 3.51% | viability, T/C [21] 3.28% | viability, T/C [22] 5.66% | viability, T/C [23] 4.13% | viability, T/C [24] 5.7% | viability, T/C [25] 3.25% | viability, T/C [26] 3.12% | viability, T/C [27] 3.88% | viability, T/C [28] 3.97% | viability, T/C [29] 4.18% | viability, T/C [30] 4.1% | viability, T/C [31] 2.62% | viability, T/C [32] 3% | viability, T/C [33] 3.34% | viability, T/C [34] 2.68% | viability, T/C [35] 3.7%
< 0.949 nM: IC50 [1] | IC50 [2] | IC50 [3] | IC50 [4] | IC50 [5]

CC(C)c1c(-c2ccccc2)nc2c(C#N)c[nH]n2c1=O
inactive: viability, T/C (compound 0.0316 µM) 105% and 103% | viability, T/C (compound 0.1 µM) 108% and 101% | viability, T/C (compound 0.316 µM) 99% and 105% | viability, T/C (compound 1 µM) 102% and 105% | viability, T/C (compound 3.16 µM) 104% and 110% | viability, T/C (compound 10 µM) 102% and 103%
> 10000 nM: IC50 (curve of compound)

Nc1ccn(C2OC(CO)C(O)C2(F)F)c(=O)n1 (stereo not drawn) + NC1CC1c1ccc(-c2cccc(O)c2)cc1
inactive: viability, T/C [6] 10.3%
active: viability, T/C [7] 2.49% | outcome [8] | viability, T/C [9] 2.95% | viability, T/C [10] 3.87% | viability, T/C [11] 4.12% | viability, T/C [12] 9.54% | viability, T/C [13] 2.66% | outcome [14] | viability, T/C [15] 2.74% | viability, T/C [16] 4.19% | viability, T/C [17] 3.51% | viability, T/C [18] 7.42% | viability, T/C [19] 2.53% | outcome [20] | viability, T/C [21] 2.64% | viability, T/C [22] 3.23% | viability, T/C [23] 4% | viability, T/C [24] 9.36% | viability, T/C [25] 2.32% | outcome [26] | viability, T/C [27] 2.75% | viability, T/C [28] 3.87% | viability, T/C [29] 6.57% | viability, T/C [30] 7.48% | viability, T/C [31] 3.61% | outcome [32] | viability, T/C [33] 2.69% | viability, T/C [34] 3.6% | viability, T/C [35] 4.45%
< 0.949 nM: IC50 [1] | IC50 [2] | IC50 [3] | IC50 [4] | IC50 [5]

Nc1ncn(C2CC(O)C(CO)S2)c(=O)n1 (stereo not drawn)
164 nM and 280 nM: IC50 (curve of compound)
inactive: viability, T/C (compound 0.000949 µM) 110% and 99.7% | viability, T/C (compound 0.003 µM) 109% and 112% | viability, T/C (compound 0.00949 µM) 117% and 112% | viability, T/C (compound 0.03 µM) 103% and 102% | viability, T/C (compound 0.0949 µM) 67.7% and 83.2% | viability, T/C (compound 0.3 µM) 30.5% and 47.9%

O=C(c1cc(Cc2n[nH]c(=O)c3ccccc23)ccc1F)N1CCN(C(=O)C2CC2)CC1
> 10000 nM: IC50 (curve of compound)
inactive: viability, T/C (compound 0.0316 µM) 103% | viability, T/C (compound 0.1 µM) 103% | viability, T/C (compound 0.316 µM) 104% and 103% | viability, T/C (compound 1 µM) 96.8% and 102% | viability, T/C (compound 3.16 µM) 85% and 97% | viability, T/C (compound 10 µM) 61.8% and 74.5%

CCc1c2c(nc3ccc(O)cc13)-c1cc3c(c(=O)n1C2)COC(=O)[C@]3(O)CC + NC1CC1c1ccc(-c2cccc(O)c2)cc1
< 0.949 nM: IC50 [1] | IC50 [2] | IC50 [3] | IC50 [4] | IC50 [5]
active: viability, T/C [6] 4.23% | viability, T/C [7] 4.35% | viability, T/C [8] 4.15% | viability, T/C [9] 6.01% | viability, T/C [10] 8.35% | viability, T/C [11] 9.73% | viability, T/C [12] 4.4% | viability, T/C [13] 3.22% | viability, T/C [14] 4.02% | viability, T/C [15] 6.1% | viability, T/C [16] 8.62% | viability, T/C [17] 9.44% | viability, T/C [18] 3.72% | viability, T/C [19] 3.14% | viability, T/C [20] 4.57% | viability, T/C [21] 6.53% | viability, T/C [22] 7.76% | viability, T/C [23] 8.97% | viability, T/C [24] 4.08% | viability, T/C [25] 3.82% | viability, T/C [26] 4.22% | viability, T/C [27] 6.42% | viability, T/C [28] 7.92% | viability, T/C [29] 7.63% | viability, T/C [30] 3.29% | viability, T/C [31] 4.49% | viability, T/C [32] 5.68% | viability, T/C [33] 8.54% | viability, T/C [34] 9.57% | viability, T/C [35] 9.08%

Nc1ccccc1NC(=O)c1ccc(CNC(=O)OCc2cccnc2)cc1 + NC1CC1c1ccc(-c2cccc(O)c2)cc1
inactive: viability, T/C [8] 107% | viability, T/C [9] 108% | viability, T/C [10] 97.8% | viability, T/C [11] 96.1% | viability, T/C (second compound 0.1 µM, first compound 0.949 µM) 66.3% | viability, T/C (second compound 0.1 µM, first compound 3 µM) 25.6% | viability, T/C [14] 113% | viability, T/C [15] 110% | viability, T/C [16] 112% | viability, T/C [17] 103% | viability, T/C (second compound 0.316 µM, first compound 0.949 µM) 78.8% | viability, T/C (second compound 0.316 µM, first compound 3 µM) 25.8% | viability, T/C [20] 103% | viability, T/C [21] 114% | viability, T/C [22] 110% | viability, T/C [23] 91.8% | viability, T/C (second compound 1 µM, first compound 0.949 µM) 71% | viability, T/C (second compound 1 µM, first compound 3 µM) 21.1% | viability, T/C [26] 99.4% | viability, T/C [27] 102% | viability, T/C [28] 98% | viability, T/C [29] 89.9% | viability, T/C (second compound 3.16 µM, first compound 0.949 µM) 64.3% | viability, T/C (second compound 3.16 µM, first compound 3 µM) 20.7% | viability, T/C [32] 103% | viability, T/C [33] 101% | viability, T/C [34] 97.9% | viability, T/C [35] 83.1% | viability, T/C (second compound 10 µM, first compound 0.949 µM) 67.2% | viability, T/C (second compound 10 µM, first compound 3 µM) 17.5%
1770 nM: IC50 [2]
1520 nM: IC50 [1] | IC50 [3]
1380 nM: IC50 [4]
1370 nM: IC50 [5]
